Data on one compound can be found in patent US20090005384A1, “Method for Producing Adsorptive Porous Body” (Kowa Co., Ltd, priority 2005, published 2009).

A short description of series [1]: Adsorption test to porous material. Type of series: physicochemical. As to conditions: for Amount of adsorbed Compound A: shaken for two hours. As to the method: To a solution prepared by completely dissolving 1.5 mg of Compound A in 1.5 mL of dichloromethane, 15 mg of porous material (light anhydrous silicic acid (Sylysia 350, produced by Fuji Silysia Chemical Co., Ltd.) or silicon dioxide (Sylysia 530, produced by Fuji Silysia Chemical Co., Ltd.) was dispersed, and this mixture was shaken for two hours using Roter RT-50 (TAITEC) and an amount of Compound A which adsorbed simply to the light anhydrous silicic acid or silicon dioxide (μg/mg porous material) was calculated by measuring the absorbance (280 nm) of a filtrate obtained by filtering with a membrane filter (0.45 μm PTFE). The amount of Compound A which adsorbed simply to the light anhydrous silicic acid or silicon dioxide ([…] porous material) was calculated by the following computational expression.
Concentration of Compound A in the filtrate (μg/mL)=ABS÷Slope of analytical curve×Dilution ratio
Here, ABS represents the absorbance.
Amount of adsorbed Compound A (g/mg porous material)=(Concentration of Compound A before the porous material was dispersed (g/mL)−Concentration of Compound A in the filtrate (g/mL))×Volume of Compound A solution (mL)÷Mass of porous material (mg)
Calculation was also conducted using ethanol in place of dichloromethane as a comparison.

Series [2] in a line: Differential scanning calorimetry analysis. Type of series: physicochemical. As to conditions: when dichloromethane was used. In general terms: Differential scanning calorimetry records heat flow against a reference as temperature is scanned.
Series [3] has as its system interleukin-lp production. As to conditions: known from Patent Document 1; cited from earlier work.
For series [4] the following is noted: cited from earlier work.

Consider `CSc1ccc(-c2nn(Cc3ccccc3)c(=O)cc2-c2ccc(Cl)cc2)cc1` [Compound A, 2-benzyl-5-(4-chlorophenyl)-6-[4-(methylthio)phenyl]-2H-pyridazin-3-one], for which the “Amount of adsorbed Compound A” value is recorded as 17.6 μg/mg porous material in series [1] (Dichloromethane, light anhydrous silicic acid (Sylysia 350)); 24.8 μg/mg porous material in series [1] (Dichloromethane, silicon dioxide (Sylysia 530)); 0.0 μg/mg porous material in series [1] (Ethanol, light anhydrous silicic acid (Sylysia 350)); 0.0 μg/mg porous material in series [1] (Ethanol, silicon dioxide (Sylysia 530)). The “Adsorption of Compound A to the porous material (in words)” value in series [1] (dichloromethane, light anhydrous silicic acid) is reported as “adsorbed”; in series [1] (dichloromethane, silicon dioxide) it was “adsorbed”; in series [1] (ethanol, light anhydrous silicic acid), “did not adsorb”; in series [1] (ethanol, silicon dioxide) it was “did not adsorb”. The “Solid state of Compound A” value in series [2] is “existed in amorphous state”. In addition, in series [3], the “interleukin-lp production suppressive effect” value is reported as “excellent”. Besides, the Solubility in water result in series [4] is recorded as “extremely insoluble”.
